Data: US7829728B2, “Diarymethyl and related compounds” (Theravance, Inc., priority 2003, dated 2010)

Legend:
[1] = target: T1, human β2 adrenergic receptor (Homo sapiens, UniProt P07550); test: Radioligand binding assay for human β2 adrenergic receptor (Assay Test Procedure A); parameters: expressed in transfected cells; host or cells: CHO cells, membranes; settings: receptor subtype selectivity, human β1 versus β2
Description: Chinese hamster ovarian (CHO) cell lines stably expressing cloned human β1, β2 or β3 adrenergic receptors, respectively, were grown to near con fluency in Hams F-12 media with 10% FBS in the presence of 500 μg/mL Geneticin. The cell monolayer was lifted with 2 mM EDTA in PBS. Cells were pelleted by centrifugation at 1,000 rpm, and cell pellets were either stored frozen at −80° C. or membranes were prepared immediately for use. For preparation of β1 and β2 receptor expressing membranes, cell pellets were re-suspended in lysis buffer (10 mM HEPES/HCl, 10 mM EDTA, pH 7.4 at 4° C.) and homogenized using a tight-fitting Dounce glass homogenizer (30 strokes) on ice. […] The protein concentration of the membrane suspension was determined by the methods described in Lowry et al., 1951, Journal of Biological Chemistry, 193, 265; and Bradford, Analytical Biochemistry, 1976, 72, 248-54. […]
Binding assays were performed in 96-well microtiter plates in a total assay volume of 100 μL with 10-15 μg of membrane protein containing the human β1, β2 or β3 adrenergic receptors in assay buffer (75 mM Tris/HCl pH 7.4 at 25° C., 12.5 mM MgCl2, 1 mM EDTA, 0.2% BSA). […] Non-specific binding was determined in the presence of 10 μM propranolol. […] Filter plates were washed three times with filtration buffer (75 mM Tris/HCl pH 7.4 at 4° C., 12.5 mM MgCl2, 1 mM EDTA) to remove unbound radioactivity. […]

[2] = target: T1, human β2 adrenergic receptor; test: Whole-cell cAMP Flashplate assay in CHO cell lines heterologously expressing human β2 adrenergic receptor (Assay Test Procedure C); assay type: cell-based; parameters: expressed in transfected cells; host or cells: CHO cells, membranes
Description: cAMP assays were performed in a radioimmunoassay format using the Flashplate Adenylyl Cyclase Activation Assay System with [^125I]-cAMP (NEN SMP004, PerkinElmer Life Sciences Inc., Boston, Mass.), according to the manufacturers instructions. For the determination of β receptor agonist potency (EC50), CHO-K1 cell lines stably expressing cloned human β1, β2 or β3 adrenergic receptors were grown to near confluency in HAM's F-12 media supplemented with 10% FBS and Geneticin (250 μg/mL). Cells were rinsed with PBS and detached in dPBS (Dulbecco's Phosphate Buffered Saline, without CaCl2 and MgCl2) containing 2 mM EDTA or Trypsin-EDTA solution (0.05% trypsin/0.53 mM EDTA). After counting cells in Coulter cell counter, cells were pelleted by centrifugation at 1,000 rpm and re-suspended in stimulation buffer containing IBMX (PerkinElmer Kit) pre-warmed to room temperature to a concentration of 1.6×10^6 to 2.8×10^6 cells/mL. About 60,000 to 80,000 cells per well were used in this assay. […] The amount of cAMP produced (pmol/well) was calculated based on the counts observed for the samples and cAMP standards as described in the manufacturer's user manual. Data were analyzed by nonlinear regression analysis with the GraphPad Prism Software package (GraphPad Software, Inc., San Diego, Calif.) with the sigmoidal equation. […]

T1 sequence (P07550 whole entry): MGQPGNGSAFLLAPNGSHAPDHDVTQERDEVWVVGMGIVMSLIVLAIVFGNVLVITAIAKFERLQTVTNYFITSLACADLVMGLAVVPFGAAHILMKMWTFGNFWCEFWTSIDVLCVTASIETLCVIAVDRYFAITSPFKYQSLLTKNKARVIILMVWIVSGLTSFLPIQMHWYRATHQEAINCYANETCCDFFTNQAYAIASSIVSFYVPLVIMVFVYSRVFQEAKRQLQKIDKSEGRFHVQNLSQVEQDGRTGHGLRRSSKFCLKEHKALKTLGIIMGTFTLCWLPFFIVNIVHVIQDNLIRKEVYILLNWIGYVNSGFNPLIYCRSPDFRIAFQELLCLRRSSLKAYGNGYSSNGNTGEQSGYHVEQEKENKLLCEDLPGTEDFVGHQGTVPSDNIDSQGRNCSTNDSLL

- ratio of Ki(β1)/Ki(β2) [1]: greater than 8
- EC50 ([2]; cAMP, CHO-K1 cells expressing cloned human β2 receptor): < 10 nM
- ratio of EC50(β1)/EC50(β2) ([2]; receptor subtype selectivity, functional cAMP, human β1 versus β2): greater than 10
Compound: NC(=O)C(c1ccccc1)(c1ccccc1)[C@@H]1CCN(CCCCCCCCCNCC(O)c2ccc(O)c3[nH]c(=O)ccc23)C1 (mixture of isomers) [Example 1, 2-((S)-1-{9-[2-Hydroxy-2-(8-hydroxy-2-oxo-1,2-dihydroquinolin-5-yl)ethylamino]-nonyl}pyrrolidin-3-yl)-2,2-diphenylacetamide]
